The target in assay [1] is T1, human glucocorticoid receptor-α [GRX] isoform (Homo sapiens, UniProt P04150).
T1 construct: host or cells: insect SF21 cells (baculovirus)
T1 sequence (P04150 1-777): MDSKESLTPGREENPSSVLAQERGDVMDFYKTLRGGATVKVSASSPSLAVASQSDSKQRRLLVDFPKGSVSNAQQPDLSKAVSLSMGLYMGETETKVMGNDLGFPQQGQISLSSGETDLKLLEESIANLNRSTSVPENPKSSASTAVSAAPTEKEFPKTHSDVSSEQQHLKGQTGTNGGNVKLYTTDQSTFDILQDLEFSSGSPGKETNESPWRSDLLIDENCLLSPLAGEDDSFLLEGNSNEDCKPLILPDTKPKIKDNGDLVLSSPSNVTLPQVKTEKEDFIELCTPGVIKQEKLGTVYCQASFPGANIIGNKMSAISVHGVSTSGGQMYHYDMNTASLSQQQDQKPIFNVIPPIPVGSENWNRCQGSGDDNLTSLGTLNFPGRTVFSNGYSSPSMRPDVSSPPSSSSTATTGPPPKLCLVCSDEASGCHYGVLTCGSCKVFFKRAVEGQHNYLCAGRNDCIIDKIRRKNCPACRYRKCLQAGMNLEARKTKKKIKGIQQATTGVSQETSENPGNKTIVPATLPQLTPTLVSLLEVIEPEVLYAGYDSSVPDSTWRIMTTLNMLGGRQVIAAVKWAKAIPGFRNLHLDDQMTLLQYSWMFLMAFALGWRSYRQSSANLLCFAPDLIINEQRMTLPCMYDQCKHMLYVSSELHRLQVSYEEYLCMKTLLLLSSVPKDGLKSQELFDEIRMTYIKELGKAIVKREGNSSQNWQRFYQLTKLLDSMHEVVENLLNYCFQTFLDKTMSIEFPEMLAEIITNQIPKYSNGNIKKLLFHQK
The assay is described as follows: Radioligand binding with human glucocorticoid receptor cytosol ([3H]-dexamethasone competition). To be noted: GRX cytosol expressed in insect SF21 cells, [3H]-Dex ~0.9 nM, 4° C. overnight; Ki by Cheng-Prusoff, KL ~[…]; read-out: Ki (nM) GR.

The target in assay [2] is T2, human progesterone receptor-A [PRA] isoform (Homo sapiens, UniProt P06401).
T2 construct: host or cells: insect SF21 cells (baculovirus)
T2 sequence (P06401 1-769 isoform P06401-2): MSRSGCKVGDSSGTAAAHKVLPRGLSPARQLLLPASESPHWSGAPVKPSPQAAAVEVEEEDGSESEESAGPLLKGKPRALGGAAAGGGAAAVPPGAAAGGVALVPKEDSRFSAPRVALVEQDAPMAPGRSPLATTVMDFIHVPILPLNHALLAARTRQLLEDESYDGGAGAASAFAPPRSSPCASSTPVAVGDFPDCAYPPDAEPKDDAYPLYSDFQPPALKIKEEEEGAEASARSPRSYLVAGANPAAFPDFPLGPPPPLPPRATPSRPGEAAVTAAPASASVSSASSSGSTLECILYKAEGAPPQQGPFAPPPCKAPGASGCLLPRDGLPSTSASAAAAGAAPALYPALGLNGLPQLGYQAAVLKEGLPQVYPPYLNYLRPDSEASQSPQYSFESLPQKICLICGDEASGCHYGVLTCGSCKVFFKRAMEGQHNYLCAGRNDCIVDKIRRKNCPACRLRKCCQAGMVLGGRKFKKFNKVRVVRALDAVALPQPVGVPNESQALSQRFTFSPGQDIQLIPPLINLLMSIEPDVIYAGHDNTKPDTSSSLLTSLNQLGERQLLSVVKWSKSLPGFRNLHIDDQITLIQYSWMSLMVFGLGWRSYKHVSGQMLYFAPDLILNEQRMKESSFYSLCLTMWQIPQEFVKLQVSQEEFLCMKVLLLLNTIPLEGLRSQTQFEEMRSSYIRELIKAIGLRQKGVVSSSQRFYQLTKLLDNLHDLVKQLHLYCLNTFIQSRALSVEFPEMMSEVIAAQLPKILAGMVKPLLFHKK
The assay is described as follows: Radioligand binding with human progesterone receptor cytosol ([3H]-progesterone competition). To be noted: PRA cytosol expressed in insect SF21 cells, [3H]Prog ~0.8 nM, 4° C. overnight; Ki by Cheng-Prusoff, KL ~4.5 nM; read-out: Ki (nM) PR.

One may read the Ki as a dissociation constant, usually derived from enzyme kinetics or from competition with a known ligand.

`COc1cccc2c1-c1ccc3c(c1C(=Cc1ccccc1F)O2)C(C)=CC(C)(C)N3` [Example 126]: the figures for the Ki in assay [1] and in assay [2] were 2.9 nM and 1410 nM, respectively.
Regarding `COc1cccc2c1-c1ccc3c(c1C(=CC1=NC(C)(C)CO1)O2)C(C)=CC(C)(C)N3` [Example 127, 2,5-Dihydro-10-methoxy-2,2,4-trimethyl-5-[(4,5-dihydro-4,4-dimethyl-2-oxazolyl)methylene]-1H-[1]benzopyrano[3,4-f]quinoline], the Ki is 29.3 nM in assay [1] and ≥ 10000 nM in assay [2].
For `COc1cccc2c1-c1ccc3c(c1C(=Cc1ccccn1)O2)C(C)=CC(C)(C)N3` [Example 128, 2,5-Dihydro-10-methoxy-2,2,4-trimethyl-5-(2-pyridinylmethylene)-1H-[1]benzopyrano[3,4-f]quinoline], in that order: 5.9 nM and ≥ 10000 nM.
The like results for `COc1cccc2c1-c1ccc3c(c1C(c1cccs1)O2)C(C)=CC(C)(C)N3` (stereo not shown) [Example 129, 2,5-Dihydro-10-methoxy-2,2,4-trimethyl-5-(2-thienyl)-1H-[1]benzopyrano[3,4-f]quinoline] were, in that order, 5.5 nM and 3620 nM.
For `C=CCC1Oc2ccc(OC)c(OC)c2-c2ccc3c(c21)C(C)=CC(C)(C)N3` (stereo not shown) [Example 130, 2,5-Dihydro-9,10-dimethoxy-2,2,4-trimethyl-5-(2-propenyl)-1H-[1]benzopyrano[3,4-f]quinoline], in that order: 11.9 nM and 1050 nM.
With `COc1ccc2c(c1OC)-c1ccc3c(c1C(C1C=CCCC1)O2)C(C)=CC(C)(C)N3` (stereo not shown) [Example 131, 5-(2-Cyclohexen-1-yl)-2,5-dihydro-9,10-dimethoxy-2,2,4-trimethyl-1H-[1]benzopyrano[3,4-f]quinoline], the Ki in assay [1] amounted to 7.71 nM; in assay [2] it was 996 nM.
The like results for `C=C(C)CCC1Oc2cccc(OC)c2-c2ccc3c(c21)C(C)=CC(C)(C)N3` (stereo not shown) [Example 132, 2,5-Dihydro-10-methoxy-5-(3-methyl-3-butenyl)-2,2,4-trimethyl-1H-[1]benzopyrano[3,4-f]quinoline] were, in that order, 230 nM and 9890 nM.
The like results for `C=CC1(C2Oc3cccc(OC)c3-c3ccc4c(c32)C(C)=CC(C)(C)N4)CCCCC1` (stereo not shown) [Example 139, 2,5-Dihydro-10-methoxy-5-(1-ethenyl-1-cyclohexyl)-2,2,4-trimethyl-1H-[1]benzopyrano[3,4-f]quinoline] were, in that order, 235 nM and 4800 nM.
The like results for `COc1cccc2c1-c1ccc3c(c1C(C1C=CCCC1(C)C)O2)C(C)=CC(C)(C)N3` (stereo not shown) [Example 140] were, in that order, 13 nM and ≥ 10000 nM.
In the case of `COc1cccc2c1-c1ccc3c(c1C(C1CCC=C(CO)C1)O2)C(C)=CC(C)(C)N3` (stereo not shown) [Example 150, 2,5-Dihydro-10-methoxy-5-(3-hydroxymethyl-3-cyclohexenyl)-2,2,4-trimethyl-1H-[1]benzopyrano[3,4-f]quinoline], the Ki in assay [1] was 106 nM; in assay [2], ≥ 10000 nM.
The like results for `COc1cccc2c1-c1ccc3c(c1C(c1c[nH]c4ccccc14)O2)C(C)=CC(C)(C)N3` (stereo not shown) [Example 151, 2,5-Dihydro-10-methoxy-5-(3-indolyl)-2,2,4-trimethyl-1H-[1]benzopyrano[3,4-f]quinoline] were, in that order, 298 nM and ≥ 10000 nM.
With `COc1cccc2c1-c1ccc3c(c1[C@H]([C@@H]1C=C(C)CCC1)O2)C(C)=CC(C)(C)N3` [Example 154], the Ki in assay [1] is 0.7 nM; in assay [2], ≥ 10000 nM.
The like results for `COc1cccc2c1-c1ccc3c(c1[C@H]([C@H]1C=C(CO)CCC1)O2)C(C)=CC(C)(C)N3` [Example 155] were, in that order, 0.86 nM and ≥ 10000 nM.
For `COc1cccc2c1-c1ccc3c(c1[C@@H]([C@@H]1C=C(CO)CCC1)O2)C(C)=CC(C)(C)N3` [Example 156, (+) (5R,3′S) 2,5-Dihydro-10-methoxy-5-(1-hydroxymethyl-3-cyclohexenyl)-2,2,4-trimethyl-1H-[1]benzopyrano[3,4-f]quinoline], in that order: 0.9 nM and 4100 nM.
For `COc1cccc2c1-c1ccc3c(c1[C@H]([C@H]1C=C(C)CCC1)O2)C(C)=CC(C)(C)N3` [Example 157, (−)-(5S,3′R) 2,5-Dihydro-10-methoxy-5-(1-methyl-3-cyclohexenyl)-2,2,4-trimethyl-1H-[1]benzopyrano[3,4-f]quinoline], in that order: 1.5 nM and 433 nM.
Take `COc1cccc2c1-c1ccc3c(c1[C@@H]([C@@H]1C=C(C)CCC1)O2)C(C)=CC(C)(C)N3` [Example 158]: the Ki is 48 nM in assay [1] and ≥ 10000 nM in assay [2].
For `COc1cccc2c1-c1ccc3c(c1C(C1C=C(CCl)CCC1)O2)C(C)=CC(C)(C)N3` (stereo not shown) [Example 159], in that order: 3.8 nM and 1840 nM.
The like results for `COCC1=CC(C2Oc3cccc(OC)c3-c3ccc4c(c32)C(C)=CC(C)(C)N4)CCC1` (stereo not shown) [Example 160] were, in that order, 1.8 nM and ≥ 10000 nM.
In the case of `COc1cccc2c1-c1ccc3c(c1C(C1C=C(COC(C)=O)CCC1)O2)C(C)=CC(C)(C)N3` [Example 163, rel (5R, 3′R) 2,5-Dihydro-10-methoxy-5-(1-acetoxymethyl-3-cyclohexenyl)-2,2,4-trimethyl-1H-[1]benzopyrano[3,4-f]quinoline], the Ki in assay [1] is 2.6 nM; in assay [2], ≥ 10000 nM.
The like results for `COCC1=CC(C2Oc3cccc(OC)c3-c3ccc4c(c32)C(C)=CC(C)(C)N4)CCC1` (stereo not shown) [Example 164] were, in that order, 36 nM and ≥ 10000 nM.
For `CNCC1=CC(C2Oc3cccc(OC)c3-c3ccc4c(c32)C(C)=CC(C)(C)N4)CCC1` [Example 170, rel (5R, 3′R) 2,5-Dihydro-10-methoxy-5-(1-(N-methylamino)methyl-3-cyclohexenyl)2,2,4-trimethyl-1H-[1]benzoppyrano[3,4-f]quinoline], in that order: 82 nM and ≥ 10000 nM.
The like results for `C=C(C)CC1Oc2cccc(OC)c2-c2ccc3c(c21)C(C)=CC(C)(C)N3` (stereo not shown) [Example 171, 2,5-Dihydro-10-methoxy-5-(2-methyl-3-propenyl)-2,2,4-trimethyl-1H-[1]benzopyrano[3,4-f]quinoline] were, in that order, 3.3 nM and 7430 nM.
Consider `COc1cccc2c1-c1ccc3c(c1C(CC1CO1)O2)C(C)=CC(C)(C)N3` (stereo not shown) [Example 175, 2,5-Dihydro-10-methoxy-5-(1,2-epoxy-3-propenyl)-2,2,4-trimethyl-1H-[1]benzopyrano[3,4-f]quinoline], for which the Ki in assay [1] was found to be 44 nM; in assay [2] it was 7700 nM.
The like results for `COc1cccc2c1-c1ccc3c(c1C(CCCN1C(=O)c4ccccc4C1=O)O2)C(C)=CC(C)(C)N3` (stereo not shown) [Example 176] were, in that order, 88 nM and > 10000 nM.
The like results for `COc1cccc2c1-c1ccc3c(c1C(CCCNC(=O)NN)O2)C(C)=CC(C)(C)N3` (stereo not shown) [Example 178, 2,5-Dihydro-10-methoxy-5-(1-(hydrazinocarbonylamino)-3-propyl)-2,2,4-trimethyl-1H-[1]benzopyrano[3,4-f]quinoline] were, in that order, 468 nM and ≥ 10000 nM.
In the case of `COC(=O)/C=C/C1Oc2cccc(OC)c2-c2ccc3c(c21)C(C)=CC(C)(C)N3` (stereo not shown) [Example 179, (E) 2,5-Dihydro-10-methoxy-5-(2-carbomethoxy-1-ethenyl)-2,2,4-trimethyl-1H-[1]benzopyrano[3,4-f]quinoline], the inhibition constant (Ki) in assay [1] worked out at 9.5 nM; in assay [2], 2750 nM.

For the origin of these results see US6506766B1 (Abbott Laboratories, priority 1998, dated 2003).
